Assay results reported in article PMC5392334, “Discovery and characterization of a novel irreversible EGFR mutants selective and potent kinase inhibitor CHMFL-EGFR-26 with a distinct binding mode” (Oncotarget, 2017).

Key:
[1] = test system: BaF3-TEL-EGFR-L858R; experiment: Anti-proliferation, BaF3 isogenic cell lines (CellTiter-Glo); format: cell-based; settings: Mus musculus, 72 hours, triplet testing
[2] = test system: EGFR Y1068 phosphorylation in BaF3-TEL-EGFR cells; experiment: EGFR Y1068 auto-phosphorylation in transformed BaF3 cells; settings: Mus musculus, BaF3, 4 h, read-out: EC50, phosphorylation of EGFR Y1068
[3] = test system: BaF3-FL-EGFR-del19; experiment: Anti-proliferation, BaF3 isogenic cell lines (CellTiter-Glo); format: cell-based; settings: Mus musculus, 72 hours, triplet testing
[4] = test system: BaF3-TEL-EGFR-T790M-C797S; experiment: as above; format: cell-based; settings: Mus musculus, 72 hours, triplet testing
[5] = test system: BaF3-FL-EGFR-L858R-T790M-C797S; experiment: as above; format: cell-based; settings: Mus musculus, 72 hours, triplet testing
[6] = test system: BaF3-INSR; experiment: Anti-proliferative effects, INSR transformed isogenic BaF3 cells; format: cell-based; settings: Mus musculus, read-out: IC50 (anti-proliferative; GI50)
[7] = test system: BaF3-TEL-EGFR-L858R-C797S; experiment: Anti-proliferation, BaF3 isogenic cell lines (CellTiter-Glo); format: cell-based; settings: Mus musculus, 72 hours, triplet testing
[8] = quoted in discussion for comparison; species, route and reference not given; cited from earlier work
[9] = test system: BaF3-TEL-EGFR-C797S; experiment: Anti-proliferation, BaF3 isogenic cell lines (CellTiter-Glo); format: cell-based; settings: Mus musculus, 72 hours, triplet testing
[10] = test system: BaF3-FL-EGFR-L858R-T790M; experiment: as above; format: cell-based; settings: Mus musculus, 72 hours, triplet testing
[11] = test system: BaF3-FL-EGFR-del19-T790M-C797S; experiment: as above; format: cell-based; settings: Mus musculus, 72 hours, triplet testing
[12] = test system: BaF3-FL-EGFR-del19-T790M; experiment: as above; format: cell-based; settings: Mus musculus, 72 hours, triplet testing
[13] = test system: Parental BaF3; experiment: as above; format: cell-based; settings: Mus musculus; Parental BaF3; 72 hours; triplet testing
[14] = test system: CHO; experiment: Anti-proliferation, normal cells (CellTiter-Glo); settings: Cricetulus griseus, 72 h
Experimental: (§2) Cells were grown in 96-well culture plates (2500-3000/well). For adherent cell lines, compounds of various concentrations were added into the plates after cells were cultured for 12 hours. Cell proliferation was determined after treatment with compounds for 72 hours. Cell viability was measured using the CellTiter–Glo assay (Promega, USA) according to the manufacturer's instructions, and luminescence was measured in a multi-label reader (Envision, PerkinElmer, USA). Data were normalized to control groups (DMSO) and represented by the mean of three independent measurements with standard error <20%. GI50 values were calculated using Prism 5.0 (GraphPad Software, San Diego, CA).

[15] = test system: H3255 (EGFRL858R); experiment: Anti-proliferation, NSCLC cell lines (CellTiter-Glo); format: cell-based; settings: Homo sapiens, NCI-H3255, 72 hours, triplet testing
Experimental: (§1) The human cancer cell lines H1975, HCC827, H2122, CHO, CHL and H1355 were purchased from the American Type Culture Collection (ATCC) (Manassas, VA, USA). PC9 cell line was purchased from the Sigma-Aldrich (St. Louis, MO, USA). A549, H3255 were purchased from Cobioer Biosciences CO., LTD (Nanjing, China). […] A549 and H1355 were cultured in F-12K Nutrient Mixture (kaighn's Modification) (Gibco, USA) with 10% FBS and supplemented with 2% L-glutamine and 1% pen/strep. H3255 was cultured in BEGM media (LONZA, USA) with 10% FBS and supplemented with 2% L-glutamine and 1% pen/strep.

[16] = test system: PC-9 (EGFR del19); experiment: as above; format: cell-based; settings: Homo sapiens, 72 hours, triplet testing
Experimental: as §1

[17] = test system: H1703 (EGFR wt); experiment: as above; format: cell-based; settings: Homo sapiens, NCI-H1703, 72 hours, triplet testing
Experimental: as §1

[18] = test system: A549 (EGFR wt); experiment: as above; format: cell-based; settings: Homo sapiens, 72 hours, triplet testing
Experimental: as §1

[19] = test system: H1355(EGFR wt); experiment: as above; format: cell-based; settings: Homo sapiens, NCI-H1355, 72 hours, triplet testing
Experimental: as §1

[20] = test system: H2122 (EGFR wt); experiment: as above; format: cell-based; settings: Homo sapiens, NCI-H2122, 72 hours, triplet testing
Experimental: as §1

[21] = test system: HCC827 (EGFR del19); experiment: as above; format: cell-based; settings: Homo sapiens, 72 hours, triplet testing
Experimental: as §1

[22] = molecular target: MNK2 kinase; settings: cited from earlier work
[23] = test system: CHL; experiment: Anti-proliferation, normal cells (CellTiter-Glo); settings: Cricetulus griseus, 72 h
Experimental: as §2

[24] = test system: BaF3-TEL-EGFR-T790M; experiment: Anti-proliferation, BaF3 isogenic cell lines (CellTiter-Glo); format: cell-based; settings: Mus musculus, 72 hours, triplet testing
[25] = test system: H1975 (EGFRL858R/T790M); experiment: Anti-proliferation, NSCLC cell lines (CellTiter-Glo); format: cell-based, human; settings: Homo sapiens, NCI-H1975; H1975 (EGFRL858R/T790M); 72 hours; triplet testing
Experimental: as §1

[26] = test system: BaF3-IGF1R; experiment: Anti-proliferative effects, IGF1R transformed isogenic BaF3 cells; format: cell-based; settings: Mus musculus, read-out: IC50 (anti-proliferative; GI50)
[27] = test system: BaF3-TEL-EGFR; experiment: Anti-proliferation, BaF3 isogenic cell lines (CellTiter-Glo); format: cell-based; settings: Mus musculus, 72 hours, triplet testing

SMILES	GI50 [1]	GI50 [3]	GI50 [4]	GI50 [5]	GI50 [7]	GI50 [9]	GI50 [10]	GI50 [11]	GI50 [12]	GI50 [13]	GI50 [14]	GI50 [15]	GI50 [16]	GI50 [17]	GI50 [18]	GI50 [19]	GI50 [20]	GI50 [21]	GI50 [23]	GI50 [24]	other results
C=CC(=O)Nc1cc(Nc2nccc(-c3cn(C)c4ccccc34)n2)c(OC)cc1N(C)CCN(C)C [AZD9291, reference compound]	< 0.3 nM	1 nM	550 nM	310 nM	590 nM	590 nM	< 0.3 nM	200 nM	< 0.3 nM	1500 nM	4200 nM	33 nM	2 nM	3500 nM	3500 nM	3000 nM	1200 nM	1 nM	2900 nM	13 nM	EC50 [2]: 63 nM; IC50 [6]: 500 nM; T1/2 [8]: 3.1 h; IC50 [22]: 95 nM; GI50 [25]: 52 nM; IC50 [26]: 560 nM; GI50 [27]: 300 nM
CCC(=O)N1CCC[C@@H](n2nc(-c3ccc(OCc4cccc(C)n4)c(Cl)c3)c3c(N)ncnc32)C1 [CHMFL-EGFR-26R]	> 10000 nM	> 10000 nM	> 10000 nM	> 10000 nM	> 10000 nM	6600 nM	> 10000 nM	7300 nM	7100 nM	> 10000 nM	> 10000 nM	> 10000 nM	> 10000 nM	9400 nM	> 10000 nM	> 10000 nM	> 10000 nM	> 10000 nM	> 10000 nM	> 10000 nM	GI50 [25]: > 10000 nM; GI50 [27]: > 10000 nM
